pIC50: −log10 of the molar value. Active and inactive are the calls of the source. The rule behind the calls is not given here.
Experiments:
THP-1 [1] = experiment: cells; conditions: Homo sapiens, THP-1, 72 h
Description: Antiproliferative activity against human THP-1 cells assessed as inhibition of cell growth incubated for 72 hrs by MTT assay

THP-1 [2] = experiment: Effect on p21 protein expression in human THP-1 cells assessed as increase in p21 protein expression level at 7.9 uM incubated for 24 hrs by Western blot analysis; format: functional, cell-based
CAL-27 [3] = experiment: Antiproliferative activity against human CAL-27 cells overexpressing HDAC4 assessed as inhibition of cell growth incubated for 72 hrs by MTT assay; format: functional, cell-based; conditions: CAL-27, 72 h
[4] = Effect on p21 mRNA expression in human THP-1 cells assessed as fold increase in p21 mRNA expression at 7.9 uM incubated for 24 hrs by RT-PCR analysis; format: functional
CAL-27 [5] = experiment: Antiproliferative activity against human CAL-27 cells without HDAC4 expression assessed as inhibition of cell growth incubated for 72 hrs by MTT assay; format: functional, cell-based; conditions: CAL-27, 72 h
THP-1 [6] = experiment: Inhibition of Class I/IIb HDAC in human THP-1 cells at 100 uM preincubated for 18 hrs followed by substrate addition and measured after 3 hrs by fluorescence based microplate reader assay relative to control; format: cell-based; conditions: time 21.0 hrs
THP-1 [7] = experiment: Inhibition of Class IIa/8 HDAC in human THP-1 cells at 100 uM preincubated for 18 hrs followed by substrate addition and measured after 3 hrs by fluorescence based microplate reader assay relative to control; format: cell-based; conditions: time 21.0 hrs, values are per cent of control
THP-1 [8] = experiment: Effect on p21 protein expression in human THP-1 cells assessed as increase in p21 protein expression level at 5 uM incubated for 24 hrs by Western blot analysis; format: functional, cell-based
THP-1 [9] = experiment: Synergistic induction of apoptosis in human THP-1 cells assessed as increase in caspase3/7 activation at 5 uM incubated for 48 hrs in the presence of 7.9 nM bortezomib by Hoechst 33342 staining based assay; format: functional, cell-based
THP-1 [10] = experiment: Synergistic induction of apoptosis in human THP-1 cells assessed as increase in subG1 population at 5 uM incubated for 48 hrs in the presence of 7.9 nM bortezomib by Propidium iodide staining based flow cytometric analysis; format: functional, cell-based
Histone deacetylase 2 = Histone deacetylase 2 (Homo sapiens, UniProt Q92769); experiment: Inhibition of human recombinant HDAC2 using Boc-Lys(Ac)-AMC as substrate preincubated for 5 mins followed by substrate addition and measured after 90 mins by fluorescence based microplate reader analysis
Histone deacetylase 2, sequence (Q92769 whole entry): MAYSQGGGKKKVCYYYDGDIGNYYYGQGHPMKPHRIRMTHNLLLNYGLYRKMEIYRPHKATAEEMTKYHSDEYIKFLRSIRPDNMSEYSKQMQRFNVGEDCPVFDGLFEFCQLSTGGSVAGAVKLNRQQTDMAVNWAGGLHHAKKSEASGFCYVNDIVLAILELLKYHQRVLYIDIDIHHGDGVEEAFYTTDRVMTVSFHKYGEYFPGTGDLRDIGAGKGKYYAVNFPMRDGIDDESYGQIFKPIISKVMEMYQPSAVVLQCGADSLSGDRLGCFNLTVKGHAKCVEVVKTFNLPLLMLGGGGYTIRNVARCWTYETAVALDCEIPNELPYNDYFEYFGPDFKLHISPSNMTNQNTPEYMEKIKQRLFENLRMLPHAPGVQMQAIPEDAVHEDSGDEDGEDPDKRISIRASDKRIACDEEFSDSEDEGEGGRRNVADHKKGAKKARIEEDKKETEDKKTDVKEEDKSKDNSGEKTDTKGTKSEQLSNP

THP-1 [11] = experiment: Induction of apoptosis in human THP-1 cells assessed as caspase3/7 activation at 5 uM incubated for 48 hrs by Hoechst 33342 staining based assay; format: functional, cell-based
THP-1 [12] = experiment: Synergistic effect on p21 protein expression in human THP-1 cells assessed as increase in p21 protein expression level at 5 uM incubated for 24 hrs in the presence of 7.9 nM bortezomib by Western blot analysis; format: functional, cell-based
THP-1 [13] = experiment: Antiproliferative activity against human THP-1 cells assessed as reduction in cell viability at 100 uM incubated for 72 hrs by MTT assay relative to control; format: functional
CAL-27 [14] = experiment: Antitumor activity against human CAL-27 cells overexpressing HDAC4 implanted in chick embryo chorio allantoic membrane assessed as reduction in cell proliferation at 5 uM; format: functional, cell-based
Histone deacetylase 11 = target: T1, Histone deacetylase 11 (Homo sapiens, UniProt Q96DB2); experiment: Inhibition of HDAC11 (unknown origin)
T1 sequence (Q96DB2 whole entry): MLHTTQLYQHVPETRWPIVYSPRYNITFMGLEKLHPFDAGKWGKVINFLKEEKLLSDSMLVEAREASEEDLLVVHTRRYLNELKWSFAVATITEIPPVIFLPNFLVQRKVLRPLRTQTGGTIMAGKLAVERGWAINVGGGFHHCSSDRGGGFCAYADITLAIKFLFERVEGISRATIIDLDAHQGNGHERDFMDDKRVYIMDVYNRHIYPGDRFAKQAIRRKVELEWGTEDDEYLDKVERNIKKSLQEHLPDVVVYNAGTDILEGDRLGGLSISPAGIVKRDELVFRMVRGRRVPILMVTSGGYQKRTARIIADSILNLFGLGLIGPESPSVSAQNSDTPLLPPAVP

Histone deacetylase 4 = Histone deacetylase 4 (Homo sapiens, UniProt P56524); experiment: Inhibition of GST-tagged HDAC4 (unknown origin)
Histone deacetylase 4, sequence (P56524 whole entry): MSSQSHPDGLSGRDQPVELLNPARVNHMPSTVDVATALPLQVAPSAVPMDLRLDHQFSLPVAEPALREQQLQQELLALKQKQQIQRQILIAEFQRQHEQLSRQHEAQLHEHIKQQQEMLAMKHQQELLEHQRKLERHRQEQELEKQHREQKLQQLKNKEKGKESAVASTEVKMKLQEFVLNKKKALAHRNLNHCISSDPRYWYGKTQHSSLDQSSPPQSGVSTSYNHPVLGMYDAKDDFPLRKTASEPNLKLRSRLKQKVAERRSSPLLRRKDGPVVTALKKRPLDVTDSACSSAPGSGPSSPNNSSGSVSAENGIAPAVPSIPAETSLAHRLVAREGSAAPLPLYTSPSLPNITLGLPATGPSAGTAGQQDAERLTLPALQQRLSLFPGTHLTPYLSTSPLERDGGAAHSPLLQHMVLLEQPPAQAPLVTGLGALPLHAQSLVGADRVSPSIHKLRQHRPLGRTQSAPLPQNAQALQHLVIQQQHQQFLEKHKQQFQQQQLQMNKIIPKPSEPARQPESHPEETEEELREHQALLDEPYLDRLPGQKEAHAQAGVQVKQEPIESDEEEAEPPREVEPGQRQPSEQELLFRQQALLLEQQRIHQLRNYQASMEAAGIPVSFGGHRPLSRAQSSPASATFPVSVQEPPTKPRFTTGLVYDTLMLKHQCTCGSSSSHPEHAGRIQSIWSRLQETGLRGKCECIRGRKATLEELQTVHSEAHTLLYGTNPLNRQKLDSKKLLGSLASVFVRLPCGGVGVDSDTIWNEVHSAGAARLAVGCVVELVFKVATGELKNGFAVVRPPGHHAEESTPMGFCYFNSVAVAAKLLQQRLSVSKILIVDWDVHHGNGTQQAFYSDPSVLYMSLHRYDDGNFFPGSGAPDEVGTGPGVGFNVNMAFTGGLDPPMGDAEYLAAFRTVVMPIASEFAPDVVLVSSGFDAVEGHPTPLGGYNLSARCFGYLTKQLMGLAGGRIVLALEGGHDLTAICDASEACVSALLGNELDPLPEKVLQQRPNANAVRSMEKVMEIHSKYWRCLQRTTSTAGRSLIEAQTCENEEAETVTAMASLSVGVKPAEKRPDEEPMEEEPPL

CAL-27 [15] = experiment: Antitumor activity against human CAL-27 cells without HDAC4 expression xenografted in chick embryo chorio allantoic membrane assessed as reduction in cell proliferation at 5 uM; format: functional, cell-based
Histone deacetylase 3 = Histone deacetylase 3 (Homo sapiens, UniProt O15379); experiment: Inhibition of HDAC3 (unknown origin)
Histone deacetylase 3, sequence (O15379 whole entry): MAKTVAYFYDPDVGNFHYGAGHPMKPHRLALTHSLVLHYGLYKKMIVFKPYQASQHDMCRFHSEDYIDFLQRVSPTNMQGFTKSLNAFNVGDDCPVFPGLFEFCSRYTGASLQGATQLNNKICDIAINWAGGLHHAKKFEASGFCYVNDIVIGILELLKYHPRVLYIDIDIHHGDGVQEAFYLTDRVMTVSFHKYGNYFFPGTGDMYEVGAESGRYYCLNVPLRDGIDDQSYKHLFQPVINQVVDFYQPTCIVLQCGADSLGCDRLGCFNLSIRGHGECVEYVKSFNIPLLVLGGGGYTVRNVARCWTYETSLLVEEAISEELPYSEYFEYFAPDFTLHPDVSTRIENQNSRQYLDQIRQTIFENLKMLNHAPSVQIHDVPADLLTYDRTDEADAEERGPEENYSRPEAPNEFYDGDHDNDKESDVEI

[16] = target: T2, Protein deacetylase HDAC6 (Homo sapiens, UniProt Q9UBN7); experiment: Inhibition of human recombinant HDAC6 using Boc-Lys(Ac)-AMC as substrate preincubated for 5 mins followed by substrate addition and measured after 90 mins by fluorescence based microplate reader analysis
T2 sequence (Q9UBN7 whole entry): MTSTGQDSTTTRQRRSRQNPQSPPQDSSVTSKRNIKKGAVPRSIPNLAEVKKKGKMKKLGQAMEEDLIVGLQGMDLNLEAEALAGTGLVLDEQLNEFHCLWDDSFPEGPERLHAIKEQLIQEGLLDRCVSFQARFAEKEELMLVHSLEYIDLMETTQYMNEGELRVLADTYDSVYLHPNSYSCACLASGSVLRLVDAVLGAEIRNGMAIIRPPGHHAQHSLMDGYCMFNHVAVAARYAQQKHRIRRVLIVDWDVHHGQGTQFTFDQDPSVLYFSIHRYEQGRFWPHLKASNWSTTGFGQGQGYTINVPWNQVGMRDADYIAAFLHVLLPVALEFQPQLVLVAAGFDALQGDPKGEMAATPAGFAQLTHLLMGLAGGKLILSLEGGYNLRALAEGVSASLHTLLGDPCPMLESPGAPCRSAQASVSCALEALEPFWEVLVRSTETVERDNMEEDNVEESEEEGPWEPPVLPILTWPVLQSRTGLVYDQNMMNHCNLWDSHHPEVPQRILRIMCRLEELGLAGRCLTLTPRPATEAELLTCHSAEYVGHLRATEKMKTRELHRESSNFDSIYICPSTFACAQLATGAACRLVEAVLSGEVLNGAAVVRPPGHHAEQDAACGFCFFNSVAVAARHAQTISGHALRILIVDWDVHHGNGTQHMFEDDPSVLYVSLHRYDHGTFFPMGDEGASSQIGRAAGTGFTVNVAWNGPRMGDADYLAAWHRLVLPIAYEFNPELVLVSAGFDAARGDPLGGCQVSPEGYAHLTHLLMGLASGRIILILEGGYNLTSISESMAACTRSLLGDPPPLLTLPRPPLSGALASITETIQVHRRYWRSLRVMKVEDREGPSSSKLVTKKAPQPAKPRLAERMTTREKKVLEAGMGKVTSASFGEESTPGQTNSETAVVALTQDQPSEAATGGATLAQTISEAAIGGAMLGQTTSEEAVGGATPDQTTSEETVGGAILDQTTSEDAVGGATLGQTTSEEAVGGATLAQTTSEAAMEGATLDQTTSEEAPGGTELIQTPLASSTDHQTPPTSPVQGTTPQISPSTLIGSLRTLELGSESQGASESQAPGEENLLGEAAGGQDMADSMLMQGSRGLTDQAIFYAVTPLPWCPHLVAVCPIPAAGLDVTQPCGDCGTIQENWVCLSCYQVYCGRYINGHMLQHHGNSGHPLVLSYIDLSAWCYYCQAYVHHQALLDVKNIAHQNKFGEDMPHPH

[17] = Inhibition of Class IIa/8 HDAC in human THP-1 cells preincubated for 18 hrs followed by substrate addition and measured after 3 hrs by fluorescence based microplate reader assay; format: cell-based
Histone deacetylase 8 = target: T3, Histone deacetylase 8 (Homo sapiens, UniProt Q9BY41); experiment: Inhibition of human recombinant HDAC8 using Boc-Lys-(Tfa)-AMC as substrate preincubated for 5 mins followed by substrate addition and measured after 90 mins by fluorescence based microplate reader analysis
T3 sequence (Q9BY41 whole entry): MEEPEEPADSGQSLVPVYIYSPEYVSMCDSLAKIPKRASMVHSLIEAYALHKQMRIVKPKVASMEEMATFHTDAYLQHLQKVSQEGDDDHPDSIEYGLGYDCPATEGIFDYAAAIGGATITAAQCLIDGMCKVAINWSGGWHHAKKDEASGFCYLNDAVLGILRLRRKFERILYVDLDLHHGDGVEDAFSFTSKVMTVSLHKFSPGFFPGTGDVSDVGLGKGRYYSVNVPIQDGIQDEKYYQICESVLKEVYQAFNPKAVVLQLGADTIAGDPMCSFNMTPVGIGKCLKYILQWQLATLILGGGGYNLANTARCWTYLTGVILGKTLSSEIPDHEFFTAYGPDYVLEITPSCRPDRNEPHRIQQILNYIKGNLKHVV

Histone deacetylase 5 = Histone deacetylase 5 (Homo sapiens, UniProt Q9UQL6); experiment: Inhibition of HDAC5 (unknown origin)
Histone deacetylase 5, sequence (Q9UQL6 whole entry): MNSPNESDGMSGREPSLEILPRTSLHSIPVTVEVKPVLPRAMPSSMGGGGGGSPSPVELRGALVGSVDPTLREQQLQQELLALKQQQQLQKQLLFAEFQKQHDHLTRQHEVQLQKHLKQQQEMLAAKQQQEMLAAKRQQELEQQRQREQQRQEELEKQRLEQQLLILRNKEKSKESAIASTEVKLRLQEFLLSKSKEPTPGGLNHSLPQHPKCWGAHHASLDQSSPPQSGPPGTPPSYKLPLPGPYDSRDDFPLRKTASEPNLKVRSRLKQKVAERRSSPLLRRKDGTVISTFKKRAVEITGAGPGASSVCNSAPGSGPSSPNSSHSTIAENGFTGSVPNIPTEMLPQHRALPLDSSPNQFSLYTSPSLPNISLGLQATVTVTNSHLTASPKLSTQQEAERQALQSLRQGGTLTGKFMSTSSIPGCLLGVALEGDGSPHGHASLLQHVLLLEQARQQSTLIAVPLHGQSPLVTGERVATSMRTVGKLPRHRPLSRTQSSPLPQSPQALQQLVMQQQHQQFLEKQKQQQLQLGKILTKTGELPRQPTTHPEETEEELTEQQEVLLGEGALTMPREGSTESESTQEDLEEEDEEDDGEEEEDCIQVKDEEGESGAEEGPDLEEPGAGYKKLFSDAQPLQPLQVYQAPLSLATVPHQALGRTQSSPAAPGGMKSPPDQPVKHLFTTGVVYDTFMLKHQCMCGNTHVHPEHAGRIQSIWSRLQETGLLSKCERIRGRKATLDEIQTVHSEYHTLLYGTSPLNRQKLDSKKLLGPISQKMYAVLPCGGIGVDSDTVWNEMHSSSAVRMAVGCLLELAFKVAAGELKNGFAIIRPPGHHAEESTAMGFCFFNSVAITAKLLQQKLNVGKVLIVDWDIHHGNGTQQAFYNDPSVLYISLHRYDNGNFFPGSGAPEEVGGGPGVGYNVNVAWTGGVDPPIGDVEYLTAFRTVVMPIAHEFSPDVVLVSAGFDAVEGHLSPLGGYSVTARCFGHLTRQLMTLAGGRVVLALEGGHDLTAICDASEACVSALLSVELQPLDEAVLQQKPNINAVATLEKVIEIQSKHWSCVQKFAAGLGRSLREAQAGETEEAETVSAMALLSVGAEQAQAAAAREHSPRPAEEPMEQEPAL

THP-1 [18] = experiment: Induction of apoptosis in human THP-1 cells assessed as subG1 population at 5 uM incubated for 48 hrs by Propidium iodide staining based flow cytometric analysis; format: functional, cell-based
[19] = Inhibition of Class I/IIb HDAC in human THP-1 cells preincubated for 18 hrs followed by substrate addition and measured after 3 hrs by fluorescence based microplate reader assay; format: cell-based
THP-1 [20] = experiment: Induction of apoptosis in human THP-1 cells assessed as caspase3/7 activation at 5.7 uM incubated for 48 hrs by Hoechst 33342 staining based assay; format: functional, cell-based
THP-1 [21] = experiment: Induction of apoptosis in human THP-1 cells assessed as subG1 population at 5.7 uM incubated for 48 hrs by Propidium iodide staining based flow cytometric analysis; format: functional, cell-based
THP-1 [22] = experiment: Synergistic induction of apoptosis in human THP-1 cells assessed as increase in subG1 population at 5.7 uM incubated for 48 hrs in the presence of 7.9 nM bortezomib by Propidium iodide staining based flow cytometric analysis; format: functional, cell-based
THP-1 [23] = experiment: Synergistic induction of apoptosis in human THP-1 cells assessed as increase in caspase3/7 activation at 5.7 uM incubated for 48 hrs in the presence of 7.9 nM bortezomib by Hoechst 33342 staining based assay; format: functional, cell-based
Histone deacetylase 1 = Histone deacetylase 1 (Homo sapiens, UniProt Q13547); experiment: Inhibition of HDAC1 (unknown origin)
Histone deacetylase 1, sequence (Q13547 whole entry): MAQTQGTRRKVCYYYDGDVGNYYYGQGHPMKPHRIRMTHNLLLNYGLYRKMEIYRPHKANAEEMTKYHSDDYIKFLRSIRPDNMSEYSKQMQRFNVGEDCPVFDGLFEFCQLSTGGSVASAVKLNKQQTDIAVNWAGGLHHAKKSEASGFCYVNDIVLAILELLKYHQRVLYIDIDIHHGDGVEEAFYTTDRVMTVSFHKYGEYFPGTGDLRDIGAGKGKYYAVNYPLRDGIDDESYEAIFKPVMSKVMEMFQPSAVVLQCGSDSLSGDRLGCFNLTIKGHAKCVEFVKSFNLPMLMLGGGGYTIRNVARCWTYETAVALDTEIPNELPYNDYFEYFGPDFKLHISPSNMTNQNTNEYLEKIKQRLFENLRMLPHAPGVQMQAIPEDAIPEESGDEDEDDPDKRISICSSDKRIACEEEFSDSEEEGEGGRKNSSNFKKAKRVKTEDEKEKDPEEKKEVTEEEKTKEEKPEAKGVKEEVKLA

| SMILES | pIC50 (THP-1 [1]) | pIC50 (CAL-27 [3]) | pIC50 (CAL-27 [5]) | inhibition (THP-1 [6]) [%] | residual activity (THP-1 [7]) [%] | Activity (THP-1 [8]) | Activity (THP-1 [9]) | Activity (THP-1 [10]) | Activity (THP-1 [11]) | Activity (THP-1 [12]) | Activity (THP-1 [13]) [%] | pIC50 (Histone deacetylase 11) | pIC50 (Histone deacetylase 3) | pIC50 [17] | pIC50 (Histone deacetylase 5) | Activity (THP-1 [18]) | pIC50 [19] | further results |
| --- | --- | --- | --- | --- | --- | --- | --- | --- | --- | --- | --- | --- | --- | --- | --- | --- | --- | --- |
| CC(C)C[C@H](NC(=O)[C@H](Cc1ccccc1)NC(=O)c1cnccn1)B(O)O [BORTEZOMIB] | 8.20 | 5.33 | 5.12 | – | – | – | – | – | – | – | – | – | – | – | – | – | – | Activity (THP-1 [2]): Active; fold change (FC) [4]: 2.5 |
| CCN(CC)CCNC(=O)c1ccc(-c2noc(C(F)(F)F)n2)cc1 | 5.03 | 5.06 | 4.65 | 93 | 100 | Active | Active | Active | inactive | Active | 80 | 4.18 | 5.42 | 7.11 | 7.72 | inactive | 4.96 | pIC50 (Histone deacetylase 2): 5.21; Activity (CAL-27 [14]): Active; pIC50 (Histone deacetylase 4): 7.77; Activity (CAL-27 [15]): Active; pIC50 [16]: 5.24; pIC50 (Histone deacetylase 8): 5.37 |
| O=C(NOCCN1CCCCC1)c1ccc(-c2noc(C(F)(F)F)n2)cc1 | ~4.00 | 4.16 | 4.11 | 70 | 101 | – | – | – | – | – | 45 | < 4.00 | 4.82 | 6.23 | 6.57 | – | 4.19 | Activity (THP-1 [20]): inactive; Activity (THP-1 [21]): inactive; Activity (THP-1 [22]): Active; Activity (THP-1 [23]): Active; pIC50 (Histone deacetylase 1): 4.68 |
| O=C(NCC1(c2nc(-c3ccccc3)cs2)CCOCC1)c1cccc(-c2noc(C(F)(F)F)n2)c1 | – | – | – | – | – | Active | Active | Active | inactive | Active | 100 | – | – | – | – | inactive | – | – |

From ChEMBL document CHEMBL5537119 (Eur J Med Chem, 2024)
